Where a SMILES comes first, the peptide text is derived from it. The star is where a group is joined. Cbz = O=C(OCc1ccccc1)*
Legend:
SIRT3 = target: T1, SIRT3 (Homo sapiens, UniProt Q9NTG7); test: HPLC-based sirtuin inhibition assay, SIRT3; assay type: biochemical; details: at 200 µM
T1 sequence (Q9NTG7 1-399): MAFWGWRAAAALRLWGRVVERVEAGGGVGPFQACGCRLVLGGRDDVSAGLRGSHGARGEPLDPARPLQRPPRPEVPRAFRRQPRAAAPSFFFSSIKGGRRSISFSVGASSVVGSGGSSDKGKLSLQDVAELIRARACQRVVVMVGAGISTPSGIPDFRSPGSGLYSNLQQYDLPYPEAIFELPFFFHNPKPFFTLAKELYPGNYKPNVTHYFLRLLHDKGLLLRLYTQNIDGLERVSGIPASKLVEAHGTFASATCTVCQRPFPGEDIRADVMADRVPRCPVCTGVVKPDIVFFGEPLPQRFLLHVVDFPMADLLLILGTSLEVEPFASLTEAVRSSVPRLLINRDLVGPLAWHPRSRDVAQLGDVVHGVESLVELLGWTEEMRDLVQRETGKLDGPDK

MCF-10A and HME1 = test: Cell viability assay; assay type: cell-based, human; details: 72 hr, compared with malignant cells
MMTV-PyMT mammary tumors = test: MMTV-PyMT mammary tumor model; assay type: in vivo, mice
c-Myc [1] = test: c-Myc protein level in BT-549 cells; assay type: cell-based, human; details: 25 µM
c-Myc [2] = test: c-Myc protein level in MCF-7 cells; assay type: cell-based, human; details: 25 µM
MCF-7 cells [3] = test: Soft agar colony formation assay; assay type: cell-based, human; details: 25 µM in ethanol
[4] = tested on: MCF-7, MDA-MB-468 and MDA-MB-231; test: Cell viability assay; assay type: cell-based, human; details: 72 hr, up to 50 µM
[5] = tested on: NCI-60 panel of human cancer cell lines; test: NCI-60 cell line screening; assay type: cell-based; details: single dose of 10 µM, 24 hr
c-Myc [6] = test: c-Myc transcription, turnover and NEDD4 expression in MCF-7 cells; assay type: cell-based, human
MDA-MB-231 cells = test: Cell viability assay; assay type: cell-based, human; details: read-out: IC50 cell viability; 72 hr
[7] = Detection of TM in mouse serum, fat and tumor tissues by mass spectrometry; assay type: in vivo, mice; details: IP administration
BT-549 = test: NCI-60 cell line screening, BT-549; assay type: cell-based, human; details: 10 µM TM
[8] = tested on: MDA-MB-231 human breast cancer xenograft; test: MDA-MB-231 xenograft model in immunocompromised mice; assay type: in vivo
MCF-7 cells [9] = test: Cell cycle distribution and β-galactosidase senescence staining in MCF-7 cells; assay type: cell-based, human; details: 25 µM
[10] = 30 days treatment, compared with vehicle
[11] = 30 days treatment, relative to vehicle

In the case of `CCCCCCCCCCCCCC(=S)NCCCCC(NC(=O)OCc1ccccc1)C(=O)Nc1ccccc1` (centres unmarked) [TM], the “inhibition of SIRT3” value (SIRT3) is reported as “did not inhibit”, the “sensitivity of cell viability to TM” value (MCF-10A and HME1) is reported as “much less sensitive” and the “acetyl-α-tubulin level in tumors” value (MMTV-PyMT mammary tumors; [10]) is reported as “modest but statistically significant increase”. For the same compound, the “proliferation of tumor cells by Ki-67 staining” value (MMTV-PyMT mammary tumors; [11]) was “significant decrease in proliferation of tumor cells”, the “mean latency to tumor onset” value (MMTV-PyMT mammary tumors; daily IP 1.5 mg TM in 50 µL DMSO, control group 48 days) was 54 days and the tumor-free survival (MMTV-PyMT mammary tumors; daily IP 1.5 mg TM, compared with vehicle) was “significantly prolonged”. The c-Myc protein abundance (c-Myc [1]) was “did not have a significant effect”, the c-Myc protein level (c-Myc [2]) was “decreased c-Myc protein level in a time-dependent manner” and the “anchorage-independent growth (soft agar colony formation)” value (MCF-7 cells [3]) was “significantly inhibited”. For the same compound, the “inhibition of cell viability” value [4] was “greater inhibition of cell viability”, the “cell lines inhibited by >50%” value [5] was 36/56 and the NEDD4 expression (c-Myc [6]; MCF-7 and K562 cells, 25 µM TM) was “up-regulated by TM at the transcriptional level”. The “half-life of c-Myc” value (c-Myc [6]; MCF-7 cells, 25 µM 4 hr then CHX) was “shortened”, the “c-Myc mRNA level” value (c-Myc [6]; MCF-7 cells, 25 µM, RT-PCR) was “not affected” and the IC50 (MDA-MB-231 cells) was 34 µM. The “TM content in abdominal fat” value [7] was “significant amount of TM accumulated in abdominal fat”, the “TM content in tumors” value [7] was “reached the tumors” and the viability (BT-549) was ~100%. The body weight ([8]; 1.5 mg TM daily, 30 days) was “no significant weight loss”, the toxicity in mice ([8]; 1.5 mg TM daily, 30 days) was “did not cause significant toxicity” and the tumor growth ([8]; 1.5 mg TM in 50 µL DMSO daily, IT or IP, 30 days, versus vehicle) was “significantly inhibited tumor growth”. The “acetyl-α-tubulin level in xenograft tumors” value [8, 10] was “moderately but statistically significantly increased”, the “Ki-67+ cells in tumors” value [8, 11] was “significant decrease in Ki-67^+ cells” and the cell cycle distribution (MCF-7 cells [9]; 0-72 hr, flow cytometry) was “pronounced increase in cells arrested in G0/G1 phase”. For the same compound, the “cellular senescence by β-galactosidase staining” value (MCF-7 cells [9]; 5 days) was “significant cellular senescence”.

For `CC(C)C[C@@H](C=O)NC(=O)[C@H](CC(C)C)NC(=O)[C@H](CC(C)C)NC(=O)OCc1ccccc1` [MG132, reference compound] (Cbz-Leu-Leu-Leu-aldehyde), the “effect on TM-induced down-regulation of c-Myc” value (c-Myc [6]; MCF-7 cells, TM 25 µM 4 hr then MG132 10 µM 2 hr) was “prevented the TM-induced down-regulation of c-Myc”.

— publication PMC4811675 (Cancer cell, 2016)
